In patent US8158621B2, “Methods of treating or preventing autoimmune diseases with 2,4-pyrimidinediamine compounds” (Rigel Pharmaceuticals, Inc., priority 2002, dated 2012):
Like-named read-outs stand apart in the source and are kept apart here.

Tested on: Human Jurkat T-cells (clone N)
Assay: Jurkat T-cell activation (anti-TCR, CD69 upregulation)
Format: cell-based
Method in brief: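 Jurkat cells in RPMI + 5% FBS preincubated with compound 1 h at 37 °C, then stimulated with anti-TCR C305 at 500 ng/ml for 20 h. CD69 surface expression stained with anti-CD69-APC and read by flow cytometry; IC50 versus solvent-only control.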

| IC50 [µM] | IC50 (Homo sapiens, Jurkat) [µM] | Compound | other results |
| --- | --- | --- | --- |
| 1.7 |  | OCCCn1ncc2ccc(Nc3ncc(F)c(Nc4ccc5c(c4)OCCO5)n3)cc21 [Compound R935287] |  |
| > 10 |  | CCOC(=O)CNC(=O)Nc1c(Nc2ccc(OCC(=O)OCC)cc2)nc(Nc2ccc(OCC(=O)OCC)cc2)nc1C(=O)OCC [Compound R926587] |  |
|  | > 10 | COC(=O)c1cc2cc(Nc3nc(Nc4ccc5c(c4)OCCO5)ncc3F)ccc2o1 [Compound R926485] |  |
| 1.64 |  | CNC(=O)COc1cccc(Nc2ncc(F)c(Nc3ccc(OC)c(F)c3)n2)c1 [Compound R926892] |  |
|  | > 10 | Nc1c(F)ccc(Nc2ncc(F)c(Nc3ccc(F)c(N)c3F)n2)c1F [Compound R950138] |  |
| > 10 |  | O=C(O)COc1cccc(Nc2ncc(F)c(Nc3ccc4c(c3)OCCO4)n2)c1 [Compound R926483] |  |
| > 10 |  | O=C1CCOc2ccc(Nc3ncc(F)c(Nc4ccc5c(c4)C(=O)CCO5)n3)cc21 [Compound R950378] |  |
| 2.88 |  | COC(=O)c1ccc(Cn2cc3ccc(Nc4ncc(F)c(Nc5ccc6c(c5)OCCO6)n4)cc3n2)c(OC)c1 [Compound R935336] |  |
| 1.41 |  | Cc1cc(Nc2ncc(F)c(Nc3ccc4cn[nH]c4c3)n2)cc(Cl)c1O [Compound R935264] |  |
|  | > 10 | CC(C)Nc1cccc(Nc2ncc(F)c(Nc3cccc(NC(C)C)c3)n2)c1 [Compound R950166] |  |
| > 10 |  | O=C(COc1ccc(Nc2ncc(F)c(Nc3ccc(OCC(=O)N4CCCC4)cc3)n2)cc1)N1CCCC1 [Compound R926563] |  |
| > 10 |  | CC(C)(C)OC(=O)COc1ccc(Nc2ncc(F)c(Nc3ccc(OCC(=O)OC(C)(C)C)cc3)n2)cc1 [Compound R926574] |  |
| 17.4 |  | CCOC(=O)COc1cccc(Nc2ncc(F)c(Nc3cc(C)c(O)c(C)c3)n2)c1 [Compound R940253] |  |
| > 10 |  | Oc1cccc(Nc2nc(NC3CCN(Cc4ccccc4)CC3)ncc2F)c1 [Compound R940264] |  |
|  | > 10 | COc1ccc(-c2ccccc2)cc1Nc1ncc(C)c(Nc2cc(-c3ccccc3)ccc2OC)n1 [Compound R935000] |  |
|  | > 10 | Cc1ccc(F)c(Nc2ncc(F)c(Nc3ccc4c(c3)OCCO4)n2)c1 [Compound R926897] |  |
|  | 4.7 | Nc1cc(Cl)cc(Nc2ccnc(Nc3cc(N)cc(Cl)c3)n2)c1 [Compound R950133] |  |
| > 10 |  | COc1cc(C(=O)NS(=O)(=O)c2ccccc2C)ccc1Cn1ncc2cc(Nc3ncc(F)c(Nc4cccc(O)c4)n3)ccc21 [Compound R935340] |  |
| 19.9 |  | CCOC(=O)C(C)(C)c1ccc(Nc2ncc(F)c(Nc3cccc(O)c3)n2)cc1 [Compound R935152] |  |
| 12.9 |  | CN(C)CCCNC(=O)CNc1cccc(Nc2ncc(F)c(Nc3cccc(NCCO)c3)n2)c1 [Compound R950237] |  |
| 2.47 |  | Fc1cnc(Nc2ccc(OCCN3CCOCC3)cc2)nc1Nc1ccc2c(c1)OCCO2 [Compound R926709] |  |
|  | > 10 | CCOC(=O)C1CCN(C(=O)c2cccc(Nc3ncc(F)c(Nc4cccc(O)c4)n3)c2)CC1 [Compound R926939] |  |
| > 10 |  | Oc1cccc(Nc2nc(Nc3ccc(OCc4nnn[nH]4)cc3)ncc2F)c1 [Compound R920818] |  |
| 16.9 |  | COC(=O)COc1ccc(Nc2cc(Cl)nc(Nc3ccc(OCC(=O)OC)cc3)n2)cc1 [Compound R926411] |  |
| 3.14 |  | CNC(=O)CCn1ncc2ccc(Nc3ncc(F)c(Nc4ccc(OC(C)C)cc4)n3)cc21 [Compound R935291] |  |
|  | 1.74 | CC(C)Oc1ccc(Nc2nc(Nc3ccc(OCC(O)CO)cc3)ncc2F)cc1 (stereo not drawn) [Compound R935175] |  |

| IC50 [µM] | IC50 (Homo sapiens, Jurkat) [µM] | Compound | other results |
| --- | --- | --- | --- |
| 11.3 |  | COc1ccc(Nc2nc(Nc3cccc(OCC(=O)NCC(O)CO)c3)ncc2F)cc1OC (stereo not drawn) [Compound R926734] |  |
|  | 18.2 | CC(C)Oc1cccc(Nc2ncc(F)c(Nc3cccc(N)c3)n2)c1 [Compound R950164] |  |
| 1.15 |  | O=C(COc1cccc(Nc2ncc(F)c(Nc3ccc4c(c3)OCCO4)n2)c1)NCCO [Compound R926505] |  |
| 4 |  | CNC(=O)COc1cc(O)cc(Nc2ncc(F)c(Nc3cccc(O)c3)n2)c1 [Compound R926929] |  |
|  | 7.95 | COC(=O)c1cc(Nc2nc(Nc3cccc(O)c3)ncc2Br)cn1C [Compound R935025] |  |
|  | 11.3 | Oc1cccc(Nc2nc(Nc3cc(Cl)c(O)c(Cl)c3)ncc2F)c1 [Compound R926890] |  |
| 2.69 |  | OCCNc1cccc(Nc2ncc(F)c(Nc3cccc(NCCO)c3)n2)c1 [Compound R950181] |  |
| > 10 |  | CCCNC(=O)COc1ccc(Nc2ncc(C#N)c(Nc3ccc(OCC(=O)NCCC)cc3)n2)cc1 [Compound R925853] |  |
|  | > 10 | Oc1cccc(Nc2nc(Nc3cccc(-c4nnn[nH]4)c3)ncc2F)c1 [Compound R926842] |  |
| 9.69 |  | O=C(CNc1cccc(Nc2ncc(F)c(Nc3cccc(NCCO)c3)n2)c1)N1CCOCC1 [Compound R950236] |  |
| 11 |  | CNC(=O)COc1cccc(Nc2ncc(F)c(Nc3ccc(OC)c(C(=O)NC)c3)n2)c1 [Compound R940306] |  |
| > 10 |  | O=C(NCCNCc1ccccc1)c1cc2cc(Nc3ncc(F)c(Nc4ccc5oc(C(=O)NCCNCc6ccccc6)cc5c4)n3)ccc2o1 [Compound R950169] |  |
|  | > 10 | CCOC(=O)c1nc(Nc2ccc3c(c2)OCCO3)nc(Nc2ccc3c(c2)OCCO3)c1N [Compound R925857] |  |
| > 10 |  | O=C(O)COc1ccc(Nc2ncc(F)c(Nc3cccc(O)c3)n2)cc1 [Compound R926564] |  |
| > 10 |  | O=C(O)c1cnc(Nc2cccc(O)c2)nc1NC(C(=O)O)c1ccccc1 (stereo not drawn) [Compound R926535] |  |
| 5.87 |  | CNC(=O)COc1cccc(Nc2ncc(F)c(Nc3cccc(SC(F)(F)F)c3)n2)c1 [Compound R926925] |  |
| 2.43 |  | CC(C)Oc1ccc(Nc2nc(Nc3ccc4[nH]ncc4c3)ncc2F)cc1 [Compound R935197] |  |
| > 10 |  | CCOC(=O)COc1cccc(Nc2ncc(F)c(Nc3ccc(O)c(C(=O)O)c3)n2)c1 [Compound R950290] |  |
| > 10 |  | CCOC(=O)COc1ccc(Nc2ncc(F)c(Nc3ccc4c(c3)OCCO4)n2)cc1 [Compound R925747] |  |
|  | > 10 | Oc1cccc(Nc2ncc(F)c(NC3c4ccccc4-c4ccccc43)n2)c1 [Compound R935020] |  |
|  |  | Nc1cc(Nc2ncc(F)c(Nc3ccc([N+](=O)[O-])c(N)c3)n2)ccc1[N+](=O)[O-] [Compound R950135] | IC50 (Homo sapiens): > 10 µM |
| 19.2 |  | COC(=O)c1cc2cc(Nc3nc(Nc4cccc(OCc5noc(C)n5)c4)ncc3F)ccc2o1 [Compound R945131] |  |
| 1.73 |  | CNC(=O)COc1cc(Nc2ncc(F)c(Nc3ccc4cc[nH]c4c3)n2)ccc1OC [Compound R926752] |  |
|  | 6.03 | OCCOc1cccc(Nc2nc(Nc3cccc(O)c3)ncc2F)c1 [Compound R935170] |  |
| 0.878 |  | CC(=NO)c1cccc(Nc2ncc(F)c(Nc3cccc(C(C)=NO)c3)n2)c1 [Compound R950379] |  |
| > 10 |  | CNC(=O)c1cc2cccc(Nc3ncc(F)c(Nc4ccc5c(c4)OCCO5)n3)c2[nH]1 [Compound R926815] |  |

| IC50 [µM] | IC50 (Homo sapiens, Jurkat) [µM] | Compound | other results |
| --- | --- | --- | --- |
|  | > 10 | Fc1cc(Nc2ncc(F)c(Nc3ccc(C(F)(F)F)c(F)c3)n2)ccc1C(F)(F)F [Compound R926018] |  |
| > 10 |  | Cc1ccc(-c2ccccc2)cc1Nc1ncc(C)c(Nc2cc(-c3ccccc3)ccc2C)n1 [Compound R935001] |  |
| 2.58 |  | O=C(NC(CO)CO)c1cc2cc(Nc3ncc(F)c(Nc4ccc5c(c4)OCCO5)n3)ccc2o1 [Compound R926785] |  |
|  | > 10 | CCOC(=O)CNc1nc(NCC(=O)OCC)c(N)c(C(=O)OCC)n1 [Compound R925865] |  |
|  | 24.5 | Fc1cnc(NCc2ccc3c(c2)CCO3)nc1Nc1ccc2c(c1)OCCO2 [Compound R950205] |  |
|  | > 10 | CC(C)c1cccc(Nc2ncc(F)c(Nc3cccc(C(C)C)c3)n2)c1 [Compound R940297] |  |
| 5.36 |  | COc1ccc([C@@H](C)Nc2ncc(Br)c(N[C@H](C)c3ccc(OC)cc3)n2)cc1 [Compound R935016] |  |
|  | > 10 | Cc1ccc(-c2ccccc2)cc1Nc1ccnc(Nc2cc(-c3ccccc3)ccc2C)n1 [Compound R925807] |  |
| 1.38 |  | COc1cc(Nc2ncc(F)c(Nc3ccc4c(cnn4C)c3)n2)cc(OC)c1 [Compound R935214] |  |
| 3.68 |  | CNC(=O)COc1cccc(Nc2ncc(F)c(Nc3ccc(OC)c(CN(C)C)c3)n2)c1 [Compound R940321] |  |
|  | 7.5 | N#Cc1cnc(Nc2cccc(O)c2)nc1Nc1cccc(O)c1 [Compound R925774] |  |
|  | > 10 | Nc1nc(N(CC(O)c2ccccc2)c2ccc3c(c2)OCCO3)ncc1F (stereo not drawn) [Compound R925765] |  |
| 4.16 |  | CC(C)NC(=O)COc1cccc(Nc2ncc(F)c(Nc3ccc4c(c3)OCCO4)n2)c1 [Compound R926830] |  |
| 12.7 |  | CCOC(=O)COc1cccc(Nc2nc(Nc3ccc4c(c3)OCCO4)ncc2F)c1 [Compound R926774] |  |
| 2.78 |  | OCCOc1cccc(Nc2ncc(F)c(Nc3ccc(CO)c(CO)c3)n2)c1 [Compound R940292] |  |
| 2.32 |  | CC(C)Oc1ccc(Nc2nc(Nc3ccc4nn(C)cc4c3)ncc2F)cc1 [Compound R935298] |  |
|  | > 10 | COc1cc(Nc2ncc(F)c(Nc3ccc(C(=O)O)c(OC)c3)n2)ccc1C(=O)O [Compound R945068] |  |
|  | > 10 | N#Cc1cccc(Nc2ncc(F)c(Nc3cccc(C#N)c3)n2)c1 [Compound R945051] |  |
| 6.24 |  | COC(=O)Cn1ncc2cc(Nc3nc(Nc4cccc(O)c4)ncc3F)ccc21 [Compound R935250] |  |
| 9.5 |  | CSc1nc2ccc(Nc3ncc(F)c(Nc4cccc(O)c4)n3)cc2s1 [Compound R950212] |  |
| 2.94 |  | Oc1cccc(Nc2nc(Nc3ccc4cn[nH]c4c3)ncc2F)c1 [Compound R935191] |  |
|  | 3.39 | CN1C(=O)COc2ccc(Nc3nc(Nc4cccc(O)c4)ncc3F)cc21 [Compound R908709] |  |
|  | > 10 | Oc1cccc(Nc2ncc(F)c(NCc3csc4ccccc34)n2)c1 [Compound R945146] |  |
|  | 12.5 | Cc1cnc(NCCc2ccc(O)cc2)nc1NCCc1ccc(O)cc1 [Compound R926397] |  |
| 4.83 |  | COC(=O)Cn1ncc2cc(Nc3nc(Nc4ccc5c(c4)OCCO5)ncc3F)ccc21 [Compound R935249] |  |

| Compound | IC50 [µM] | IC50 (Homo sapiens, Jurkat) [µM] | other results |
| --- | --- | --- | --- |
| Fc1cnc(Nc2cccc(OCCN3CCOCC3)c2)nc1Nc1ccc2c(c1)OCCO2 [Compound R926486] | 1.75 |  |  |
